# Measured values from ChEMBL document CHEMBL4842345, “Design, synthesis and biological evaluation of tanshinone IIA-based analogues: Potent inhibitors of microtubule formation and angiogenesis” (Eur J Med Chem, 2021).
# Activity calls are given as the source filed them. The rule behind the calls is not given here.
# Assays:
# A549 [1] = experiment: Induction of apoptosis in human A549 cells assessed as activation of executioner caspase-3 at 2.5 to 10 uM measured after 48 hrs by western blot analysis; format: functional, cell-based; details: dose 2.5-10 µM
# A549 [2] = experiment: Induction of apoptosis in human A549 cells assessed as live cells at 5 uM measured after 48 hrs by Annexin V-FITC/PI staining based flow cytometry analysis (Rvb= 97.1%); format: functional
# [3] = Kinetic solubility of the compound at pH 2 by nephelometry; format: physicochemical; details: buffer, read-out: Kinetic_solubility
# U-937 = experiment: Antiproliferative activity against human U-937 cells assessed as reduction in cell viability measured after 72 hrs by MTT assay; format: functional, cell-based; details: U-937, 72 h
# A549 [4] = experiment: Induction of apoptosis in human A549 cells assessed as cleavage of PARP at 2.5 to 10 uM measured after 48 hrs by western blot analysis; format: functional, cell-based; details: dose 2.5-10 µM
# A549 [5] = experiment: Induction of apoptosis in human A549 cells assessed as activation of the initiator caspase-9 measured after 48 hrs by western blot analysis; format: functional, cell-based
# Danio rerio [6] = organism: Danio rerio; experiment: Antiangiogenic activity in transgenic Tg(flk:EGFP) zebra fish embryos assessed as reduction in length of intersegmental vessels measured at 30 hrs post fertilization by confocal fluorescence microscopy analysis; format: functional, organism-based; details: dose 1-4 µM
# A549 [7] = experiment: Induction of apoptosis in human A549 cells assessed as early apoptotic cells at 10 uM measured after 48 hrs by Annexin V-FITC/PI staining based flow cytometry analysis (Rvb= 0.72%); format: functional
# HUVEC [8] = experiment: Antivascular activity against HUVEC cells assessed as reduction in number of branching points measured after 6 hrs by imaging analysis; format: functional, cell-based; details: Homo sapiens, dose 0.25-1 µM
# HUVEC [9] = experiment: Antivascular activity against HUVEC cells assessed as reduction in area and number of meshes measured after 6 hrs by imaging analysis; format: functional, cell-based; details: Homo sapiens, dose 0.25-1 µM
# A549 [10] = experiment: Induction of cell cycle arrest in human A549 cells assessed as accumulation of cells at S phase at 2.5 uM measured after 48 hrs by flow cytometry analysis (Rvb= 24.5%); format: functional
# A549 [11] = experiment: Induction of apoptosis in human A549 cells assessed as live cells at 10 uM measured after 48 hrs by Annexin V-FITC/PI staining based flow cytometry analysis (Rvb= 97.1%); format: functional
# A549 [12] = experiment: Induction of cell cycle arrest in human A549 cells assessed as accumulation of cells at G1 phase at 2.5 uM measured after 48 hrs by flow cytometry analysis (Rvb= 60.29%); format: functional
# A549 [13] = experiment: Induction of cell cycle arrest in human A549 cells assessed as increase in number of cells accumulation at G2/M phase at 5 uM measured after 48 hrs by flow cytometry analysis (Rvb= 16.72%); format: functional
# A549 [14] = experiment: Induction of cell cycle arrest in human A549 cells assessed as increase in number of cells accumulation at G2/M phase at 10 uM measured after 48 hrs by flow cytometry analysis (Rvb= 16.72%); format: functional
# A549 [15] = experiment: Antiproliferative activity against human A549 cells assessed as decrease in DNA synthesis at 2.5 to 10 uM by Edu incorporation assay; format: functional, cell-based; details: dose 2.5-10 µM
# [16] = Intrinsic clearance in human liver microsome; format: ADME, microsomes; details: microsomes
# HUVEC [17] = experiment: Antivascular activity against HUVEC cells assessed as inhibition of capillary-like tubule formation measured after 6 hrs by matrigel matrix based microscopic analysis; format: functional, cell-based; details: Homo sapiens, dose 0.25-1 µM
# A549 [18] = experiment: Induction of cell cycle arrest in human A549 cells assessed as accumulation of cells at G1 phase at 5 uM measured after 48 hrs by flow cytometry analysis (Rvb= 60.29%); format: functional
# A549 [19] = experiment: Induction of cell cycle arrest in human A549 cells assessed as accumulation of cells at G1 phase at 10 uM measured after 48 hrs by flow cytometry analysis (Rvb= 60.29%); format: functional
# Danio rerio [20] = organism: Danio rerio; experiment: Antiangiogenic activity in transgenic Tg(flk:EGFP) zebra fish embryos assessed as reduction in number of intersegmental vessels measured at 30 hrs post fertilization by confocal fluorescence microscopy analysis; format: functional, organism-based; details: dose 1-4 µM
# Tubulin (Homo sapiens) [21] = target: T1, Tubulin (Homo sapiens) (UniProt P68371+Q9H4B7+P0DPH7+P68366+Q13509+Q71U36+P04350+Q3ZCM7+P07437+P68363+Q9BQE3+Q6PEY2+Q13885+Q9BVA1+Q9BUF5); experiment: Induction of microtubule distruption in human A549 cells assessed as occurence of cell shrinkage at 2.5 to 10 uM measured after 48 hrs by immunofluorescence based laser scanning confocal microscopic analysis; details: dose 2.5-10 µM
# HUVEC [22] = experiment: Antivascular activity against HUVEC cells assessed as reduction in area covered by HUVECs measured after 6 hrs by imaging analysis; format: functional, cell-based; details: Homo sapiens, dose 0.25-1 µM
# A549 [23] = experiment: Induction of cell cycle arrest in human A549 cells assessed as accumulation of cells at S phase at 10 uM measured after 48 hrs by flow cytometry analysis (Rvb= 24.5%); format: functional
# A549 [24] = experiment: Induction of apoptosis in human A549 cells assessed as late apoptotic cells at 10 uM measured after 48 hrs by Annexin V-FITC/PI staining based flow cytometry analysis (Rvb= 1.47%); format: functional
# Tubulin (Homo sapiens) [25] = target: T1, Tubulin (Homo sapiens); experiment: Induction of microtubule distruption in human A549 cells assessed as disseminated microtubules in cytoplasm at 2.5 to 10 uM measured after 48 hrs by immunofluorescence based laser scanning confocal microscopic analysis; format: cell-based; details: dose 2.5-10 µM
# A549 [26] = experiment: Induction of cell cycle arrest in human A549 cells assessed as increase in number of cells accumulation at G2/M phase at 2.5 uM measured after 48 hrs by flow cytometry analysis (Rvb= 16.72%); format: functional
# A549 [27] = experiment: Antiproliferative activity against human A549 cells assessed as reduction in cell viability measured after 72 hrs by MTT assay; format: functional, cell-based; details: A549, 72 h
# Tubulin (Homo sapiens) [28] = target: T1, Tubulin (Homo sapiens); experiment: Displacement of [3H]colchicine binding to tubulin (unknown origin); format: protein-complex assay
# HepG2 = experiment: Antiproliferative activity against human HepG2 cells assessed as reduction in cell viability measured after 72 hrs by MTT assay; format: functional, cell-based; details: HepG2, 72 h
# [29] = Metabolic stability in human liver microsomes assessed as degradation half life; format: ADME, Microsome; details: microsomes
# MCF7 = experiment: Antiproliferative activity against human MCF7 cells assessed as reduction in cell viability measured after 72 hrs by MTT assay; format: functional, cell-based; details: MCF7, 72 h
# HUVEC [30] = experiment: Inhibition of cell migration in HUVEC cells assessed as decrease in number of migrated endothelial cells at 0.25 to 1 uM measured after 48 hrs by crystal violet staining based transwell assay; format: functional; details: Homo sapiens, dose 0.25-1 µM
# Tubulin (Homo sapiens) [31] = target: T1, Tubulin (Homo sapiens); experiment: Induction of microtubule distruption in human A549 cells assessed as reduction in number of living cells at 2.5 to 10 uM measured after 48 hrs by immunofluorescence based laser scanning confocal microscopic analysis; format: cell-based; details: dose 2.5-10 µM
# Tubulin (Homo sapiens) [32] = target: T1, Tubulin (Homo sapiens); experiment: Inhibition of tubulin (unknown origin) polymerization assessed as decrease in fluorescence intensity at 12 uM by fluorescence based assay; format: protein-complex assay
# [33] = Kinetic solubility of the compound at pH 6.5 by nephelometry; format: physicochemical; details: buffer, read-out: Kinetic_solubility
# Danio rerio [34] = organism: Danio rerio; experiment: Antiangiogenic activity in transgenic Tg(flk:EGFP) zebra fish embryos assessed as disruption of intersegmental vessels formation measured at 30 hrs post fertilization by confocal fluorescence microscopy analysis; format: functional, organism-based
# A549 [35] = experiment: Inhibition of cell migration in human A549 cells assessed as decrease in wound healing rate at 0.5 to 2 uM measured after 48 hrs by wound healing assay; format: functional, cell-based; details: dose 0.5-2 µM
smiles,measurement,setting,value
COc1ccc2c(c1)-c1occ(C)c1C(=O)C2=O,Activity,A549 [1],Active
same,Activity,A549 [2],82.8%
same,solubility kinetic,[3],250 µg/mL
same,IC50,U-937,2770 nM
same,Activity,A549 [4],Active
same,Activity,A549 [5],Dose-Dependent Effect
same,Activity,Danio rerio [6],Dose-Dependent Effect
same,Activity,A549 [7],80.2%
same,Activity,HUVEC [8],Dose-Dependent Effect
same,Activity,HUVEC [9],Dose-Dependent Effect
same,Activity,A549 [10],21.27%
same,Activity,A549 [11],11.1%
same,Activity,A549 [12],61.93%
same,Activity,A549 [13],20%
same,Activity,A549 [14],32.19%
same,Activity,A549 [15],Active
same,CLH,[16],175 µL/min/mg
same,Activity,HUVEC [17],Active
same,Activity,A549 [18],54.43%
same,Activity,A549 [19],55.29%
same,Activity,Danio rerio [20],Dose-Dependent Effect
same,Activity,Tubulin (Homo sapiens) [21],Active
same,Activity,HUVEC [22],Dose-Dependent Effect
same,Activity,A549 [23],13.48%
same,Activity,A549 [24],8.19%
same,Activity,Tubulin (Homo sapiens) [25],Active
same,Activity,A549 [26],17.41%
same,IC50,A549 [27],320 nM
same,Activity,Tubulin (Homo sapiens) [28],Active
same,IC50,HepG2,2000 nM
same,t1/2,[29],1.8 h
same,IC50,MCF7,3160 nM
same,inhibition,HUVEC [30],Active
same,Activity,Tubulin (Homo sapiens) [31],Active
same,inhibition,Tubulin (Homo sapiens) [32],Active
same,solubility kinetic,[33],405 µg/mL
same,Activity,Danio rerio [34],Dose-Dependent Effect
same,inhibition,A549 [35],Active
